In patent US12516056B2, “Compounds for inhibition of janus kinase 1” (MANKIND PHARMA LTD., priority 2019, dated 2026):
Where a name gives a salt, the structure may show the parent alone. Read-outs that look alike come from different tables or passages of the source.

Columns and labels:
Recombinant JAK1 = target: T1, Recombinant JAK1 (Homo sapiens, UniProt P23458); test: JAK biochemical assay (LANCE Ultra TR-FRET), JAK1; conditions: recombinant JAK1, TR-FRET; read-out: Biochemical Assay (μM) JAK1
T1 construct: purchased Carna Biosciences
Method in brief: (§1)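 Kinase reactions ran in buffer of 50 mM HEPES pH 7.5 with 1 mM EGTA, 10 mM MgCl2, 2 mM DTT and 0.01% Tween-20, using recombinant enzyme. Phosphorylated ULight substrate was detected by TR-FRET, and compound effect expressed as % inhibition against vehicle.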

Recombinant JAK2 = target: T2, Recombinant JAK2 (Homo sapiens, UniProt O60674); test: JAK biochemical assay (LANCE Ultra TR-FRET), JAK2; conditions: recombinant JAK2, TR-FRET; read-out: Biochemical Assay (μM) JAK2
T2 construct: purchased Carna Biosciences
Method in brief: as §1

Recombinant JAK3 = target: T3, Recombinant JAK3 (Homo sapiens, UniProt P52333); test: JAK biochemical assay (LANCE Ultra TR-FRET), JAK3; conditions: recombinant JAK3, TR-FRET; read-out: Biochemical Assay (μM) JAK3
T3 construct: purchased Carna Biosciences
T3 sequence (P52333 1-1124): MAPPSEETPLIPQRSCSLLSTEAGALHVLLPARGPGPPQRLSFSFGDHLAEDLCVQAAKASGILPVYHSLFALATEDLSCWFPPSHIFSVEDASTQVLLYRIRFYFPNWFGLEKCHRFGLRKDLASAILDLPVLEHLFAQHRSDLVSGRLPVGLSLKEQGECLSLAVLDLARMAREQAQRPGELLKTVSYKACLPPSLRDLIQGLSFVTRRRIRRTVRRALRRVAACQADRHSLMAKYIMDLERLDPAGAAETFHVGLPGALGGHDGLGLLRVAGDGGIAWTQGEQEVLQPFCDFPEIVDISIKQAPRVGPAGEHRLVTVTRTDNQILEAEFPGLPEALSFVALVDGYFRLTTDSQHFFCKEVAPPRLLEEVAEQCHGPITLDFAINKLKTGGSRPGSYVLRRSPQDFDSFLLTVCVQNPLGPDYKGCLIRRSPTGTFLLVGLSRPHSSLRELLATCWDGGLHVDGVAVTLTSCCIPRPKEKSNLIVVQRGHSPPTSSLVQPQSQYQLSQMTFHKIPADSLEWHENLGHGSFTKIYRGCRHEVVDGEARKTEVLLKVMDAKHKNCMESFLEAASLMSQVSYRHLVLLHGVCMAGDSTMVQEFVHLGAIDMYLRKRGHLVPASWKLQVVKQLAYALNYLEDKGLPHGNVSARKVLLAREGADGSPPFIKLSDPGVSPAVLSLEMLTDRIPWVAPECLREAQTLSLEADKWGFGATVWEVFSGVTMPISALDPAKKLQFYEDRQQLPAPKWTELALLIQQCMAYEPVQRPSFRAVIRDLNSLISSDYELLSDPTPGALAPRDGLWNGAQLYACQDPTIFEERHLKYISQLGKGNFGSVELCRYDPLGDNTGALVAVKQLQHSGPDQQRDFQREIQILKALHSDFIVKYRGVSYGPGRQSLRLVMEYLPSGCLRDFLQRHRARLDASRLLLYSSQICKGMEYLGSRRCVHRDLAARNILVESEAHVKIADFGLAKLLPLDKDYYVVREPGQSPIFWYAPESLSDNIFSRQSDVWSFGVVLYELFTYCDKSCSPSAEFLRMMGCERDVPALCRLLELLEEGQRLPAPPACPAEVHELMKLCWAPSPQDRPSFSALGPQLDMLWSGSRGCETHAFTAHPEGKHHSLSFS
Method in brief: as §1

Recombinant TYK2 = target: T4, Recombinant TYK2 (Homo sapiens, UniProt P29597); test: JAK biochemical assay (LANCE Ultra TR-FRET), TYK2; conditions: recombinant TYK2, TR-FRET; read-out: Biochemical Assay (μM) TYK2
T4 construct: purchased Carna Biosciences
Method in brief: as §1

[1] = test system: STAT3 phosphorylation by IL-6 in TF-1 cells; test: JAK cellular assay: STAT3 phosphorylation by IL-6 in TF-1 cells (HTRF); format: cell-based; conditions: Homo sapiens, TF-1, TF-1 cells, IL-6 30 ng/ml, pSTAT3 HTRF; read-out: Cell Based Assay (μM) TF-1/IL-6/pSTAT3
Method in brief: (§2)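 Phospho-STAT3 (IL-6, 30 ng/ml) and phospho-STAT5 (GMCSF, 5 ng/ml) read by HTRF in lysates after 20 min cytokine exposure, minus unstimulated-cell background. Cells were serum-starved overnight, plated at 120,000/well, given compound 30 min at 37 °C beforehand; DMSO 0.2% final.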

[2] = test system: STAT5 phosphorylation by IL-2 in HT-2 cells; test: STAT5 phosphorylation by IL-2 in HT-2 cells (HTRF); format: cell-based; conditions: IL-2 50 U/ml, pSTAT5 HTRF, read-out: Cell Based Assay (μM) HT-2/IL-2/pSTAT5
Description: HT-2 cells were starved […] in RPMI phenol red with 10% fetal bovine serum for 4 hours in CO2 incubator maintained at 37° c. Compounds were diluted in DMSO and added to 96 well plate containing a final density of 1,20,000 cells per well. Cells and compounds are incubated for 30 minutes in CO2 incubator maintained at 37° C. and final DMSO concentration in cell based assay was 0.2%. Human recombinant cytokine, IL-2 (50 U/ml) was added to the plate containing cells and compound and incubated for 20 minutes with gentle tapping/shaking at every 5 minutes once. Compound mediated effects on STAT5 phosphorylation was measured in the lysates prepared by using CISBIO pSTAT5 detection kit by HTRF method. Background signal obtained from cells which were not activated with cytokines, was subtracted from vehicle controls and compound treated wells.

[3] = test system: STAT5 phosphorylation by GMCSF in TF-1 cells; test: JAK cellular assay: STAT5 phosphorylation by GMCSF in TF-1 cells (HTRF); format: cell-based; conditions: Homo sapiens; TF-1 cells, GMCSF 5 ng/ml, pSTAT5 HTRF; read-out: Cell Based Assay (μM) TF-1/GMCSF/pSTAT5
Method in brief: as §2

T4 sequence (P29597 whole entry): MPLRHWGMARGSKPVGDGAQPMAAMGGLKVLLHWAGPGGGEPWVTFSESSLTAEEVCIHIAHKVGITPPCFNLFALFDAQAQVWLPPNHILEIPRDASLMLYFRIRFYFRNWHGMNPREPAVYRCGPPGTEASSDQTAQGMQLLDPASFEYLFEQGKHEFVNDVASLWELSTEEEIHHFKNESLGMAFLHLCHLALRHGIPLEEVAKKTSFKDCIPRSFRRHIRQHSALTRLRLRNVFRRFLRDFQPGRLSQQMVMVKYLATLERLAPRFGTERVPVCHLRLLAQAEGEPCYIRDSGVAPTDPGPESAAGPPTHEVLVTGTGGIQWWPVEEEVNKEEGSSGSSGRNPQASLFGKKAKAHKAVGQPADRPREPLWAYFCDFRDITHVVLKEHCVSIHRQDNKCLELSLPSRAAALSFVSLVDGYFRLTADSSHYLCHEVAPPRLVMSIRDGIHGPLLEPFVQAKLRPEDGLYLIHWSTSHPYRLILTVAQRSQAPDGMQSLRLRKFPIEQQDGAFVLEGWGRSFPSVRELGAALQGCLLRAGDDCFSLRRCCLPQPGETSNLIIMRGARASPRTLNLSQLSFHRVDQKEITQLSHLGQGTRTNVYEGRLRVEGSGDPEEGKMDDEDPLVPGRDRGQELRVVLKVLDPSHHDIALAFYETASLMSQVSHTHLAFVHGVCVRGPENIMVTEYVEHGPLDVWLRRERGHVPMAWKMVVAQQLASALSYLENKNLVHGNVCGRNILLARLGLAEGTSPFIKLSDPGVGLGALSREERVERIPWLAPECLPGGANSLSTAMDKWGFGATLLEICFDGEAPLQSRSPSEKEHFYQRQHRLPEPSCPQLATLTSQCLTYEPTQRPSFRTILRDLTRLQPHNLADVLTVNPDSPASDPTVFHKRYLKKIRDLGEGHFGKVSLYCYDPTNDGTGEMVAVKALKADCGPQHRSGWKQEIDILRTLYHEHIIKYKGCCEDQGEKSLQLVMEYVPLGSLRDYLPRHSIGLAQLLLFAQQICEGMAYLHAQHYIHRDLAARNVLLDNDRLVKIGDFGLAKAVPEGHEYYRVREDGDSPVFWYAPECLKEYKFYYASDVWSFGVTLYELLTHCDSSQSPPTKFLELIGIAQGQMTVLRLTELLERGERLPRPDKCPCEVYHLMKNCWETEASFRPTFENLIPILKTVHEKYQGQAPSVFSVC
T2 sequence (O60674 whole entry): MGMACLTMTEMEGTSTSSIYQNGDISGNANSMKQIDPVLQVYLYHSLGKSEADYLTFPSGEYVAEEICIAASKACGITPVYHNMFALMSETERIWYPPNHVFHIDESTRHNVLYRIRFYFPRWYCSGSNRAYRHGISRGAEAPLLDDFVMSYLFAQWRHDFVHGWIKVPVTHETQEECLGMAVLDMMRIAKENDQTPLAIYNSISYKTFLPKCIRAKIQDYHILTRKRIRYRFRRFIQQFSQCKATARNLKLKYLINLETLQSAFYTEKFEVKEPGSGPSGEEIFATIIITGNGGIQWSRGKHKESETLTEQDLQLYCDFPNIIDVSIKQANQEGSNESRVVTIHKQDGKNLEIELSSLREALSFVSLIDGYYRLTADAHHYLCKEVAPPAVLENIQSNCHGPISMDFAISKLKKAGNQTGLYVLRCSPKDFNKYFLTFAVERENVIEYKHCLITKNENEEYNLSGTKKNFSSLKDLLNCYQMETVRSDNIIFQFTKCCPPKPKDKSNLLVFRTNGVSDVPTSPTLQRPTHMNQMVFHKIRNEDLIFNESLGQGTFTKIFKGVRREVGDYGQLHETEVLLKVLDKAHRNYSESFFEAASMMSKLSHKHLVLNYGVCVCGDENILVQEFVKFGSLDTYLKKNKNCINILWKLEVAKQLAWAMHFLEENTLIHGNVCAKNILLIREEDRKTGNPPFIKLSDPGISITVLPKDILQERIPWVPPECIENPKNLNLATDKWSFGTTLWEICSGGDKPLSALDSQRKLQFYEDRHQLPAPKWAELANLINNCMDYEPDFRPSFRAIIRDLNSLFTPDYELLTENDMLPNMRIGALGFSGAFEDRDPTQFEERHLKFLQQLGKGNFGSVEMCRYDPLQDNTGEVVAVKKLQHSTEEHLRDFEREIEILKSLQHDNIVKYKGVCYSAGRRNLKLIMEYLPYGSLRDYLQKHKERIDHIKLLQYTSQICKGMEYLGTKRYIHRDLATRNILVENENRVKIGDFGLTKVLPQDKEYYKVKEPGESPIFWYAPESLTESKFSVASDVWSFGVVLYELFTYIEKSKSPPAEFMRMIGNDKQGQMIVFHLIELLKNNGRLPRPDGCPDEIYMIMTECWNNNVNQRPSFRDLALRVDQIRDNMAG
T1 sequence (P23458 whole entry): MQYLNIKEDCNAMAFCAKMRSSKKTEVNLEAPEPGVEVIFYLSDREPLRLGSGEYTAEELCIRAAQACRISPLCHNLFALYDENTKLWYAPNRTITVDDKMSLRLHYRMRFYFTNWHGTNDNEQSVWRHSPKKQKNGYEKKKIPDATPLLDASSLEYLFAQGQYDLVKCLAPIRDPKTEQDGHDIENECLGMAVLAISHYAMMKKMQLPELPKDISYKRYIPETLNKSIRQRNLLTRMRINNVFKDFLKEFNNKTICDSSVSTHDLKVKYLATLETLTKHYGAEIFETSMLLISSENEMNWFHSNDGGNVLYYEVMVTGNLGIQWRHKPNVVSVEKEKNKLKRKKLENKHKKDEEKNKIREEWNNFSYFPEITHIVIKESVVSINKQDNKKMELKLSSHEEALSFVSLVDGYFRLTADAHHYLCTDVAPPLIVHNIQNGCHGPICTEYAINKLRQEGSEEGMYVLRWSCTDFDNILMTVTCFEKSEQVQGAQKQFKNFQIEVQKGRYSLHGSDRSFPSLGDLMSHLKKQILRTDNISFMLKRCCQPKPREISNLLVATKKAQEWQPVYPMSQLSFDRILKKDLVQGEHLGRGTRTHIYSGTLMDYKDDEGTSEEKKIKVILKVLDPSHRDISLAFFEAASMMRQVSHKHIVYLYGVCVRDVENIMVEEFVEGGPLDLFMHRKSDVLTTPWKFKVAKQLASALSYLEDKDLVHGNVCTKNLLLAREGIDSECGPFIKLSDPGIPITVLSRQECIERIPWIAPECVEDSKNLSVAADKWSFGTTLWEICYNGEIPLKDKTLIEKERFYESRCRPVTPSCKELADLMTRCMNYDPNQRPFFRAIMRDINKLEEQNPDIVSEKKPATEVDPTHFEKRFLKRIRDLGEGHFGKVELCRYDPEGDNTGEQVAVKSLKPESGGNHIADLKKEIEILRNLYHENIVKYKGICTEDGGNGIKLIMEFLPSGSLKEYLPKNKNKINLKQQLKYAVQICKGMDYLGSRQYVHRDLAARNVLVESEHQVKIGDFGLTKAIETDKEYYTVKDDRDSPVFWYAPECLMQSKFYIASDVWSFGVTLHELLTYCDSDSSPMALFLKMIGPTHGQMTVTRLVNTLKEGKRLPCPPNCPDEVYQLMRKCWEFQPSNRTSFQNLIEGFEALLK

SMILES | IC50 (Recombinant JAK1) [µM] | IC50 (Recombinant JAK2) [µM] | IC50 (Recombinant JAK3) [µM] | IC50 (Recombinant TYK2) [µM] | IC50 [1] [µM] | IC50 ([2]; HT2, HT-2 cells) [µM] | IC50 [3] [µM] | IC50 ([2]; HT-2 cells) [µM]
CC(C)N1CCC([C@](O)(c2ccc(-n3cc(-c4ccnc5[nH]cnc45)cn3)cc2)C(F)(F)F)C1 (stereo partly drawn) [Example 1251, (S)-1-(4-(4-(3H-imidazo[4,5-b]pyridin-7-yl)-1H-pyrazol-1-yl)phenyl)-2,2,2-trifluoro-1-(1-isopropylpyrrolidin-3-yl)ethanol] | < 0.1 | < 0.1 | < 0.1 | > 0.5 | 1 | > 2 |  | 
CNC(=O)CCC(c1ccc(-n2cc(-c3ccnc4[nH]cnc34)cn2)nc1)C(F)(F)F (centres unmarked) [Example 1148, 4-(6-(4-(3H-imidazo[4,5-b]pyridin-7-yl)-1H-pyrazol-1-yl)pyridin-3-yl)-5,5,5-trifluoro-N-methylpentanamide] | < 0.1 | < 0.1 | < 0.1 | > 1 | > 0.5 | > 1 |  | 
CS(=O)(=O)CCC(c1ccc(-n2cc(-c3ccnc4[nH]cnc34)cn2)cc1)C(F)(F)F (centres unmarked) [Example 1190, 7-(1-(4-(1,1,1-trifluoro-4-(methylsulfonyl)butan-2-yl)phenyl)-1H-pyrazol-4-yl)-3H-imidazo[4,5-b]pyridine] | < 0.1 | < 0.1 | < 0.1 | > 1 | 1 | 3.6 |  | 
OC(CCN1CCOCC1)(c1ccc(-n2cc(-c3ccnc4[nH]cnc34)cn2)nc1)C(F)(F)F (centres unmarked) [Example 1230, 2-(6-(4-(3H-imidazo[4,5-b]pyridin-7-yl)-1H-pyrazol-1-yl)pyridin-3-yl)-1,1,1-trifluoro-4-morpholinobutan-2-ol] | < 0.1 | < 0.1 | < 0.1 | > 0.5 | > 0.5 | > 0.5 |  | 
N#CC(C(=O)NCC(F)(F)F)c1ccc(-n2cc(-c3ccnc4[nH]cnc34)cn2)nc1 (centres unmarked) [Example 1168, 2-(6-(4-(3H-imidazo[4,5-b]pyridin-7-yl)-1H-pyrazol-1-yl)pyridin-3-yl)-2-cyano-N-(2,2,2-trifluoroethyl)acetamide] | > 0.1 | > 0.5 | > 0.1 | > 1 | > 1 | > 1 |  | 
N#CC1CN(C(=O)CCC(c2ccc(-n3cc(-c4ccnc5[nH]cnc45)cn3)nc2)C(F)(F)F)C1 (centres unmarked) [Example 1250, 1-(4-(6-(4-(3H-imidazo[4,5-b]pyridin-7-yl)-1H-pyrazol-1-yl)pyridin-3-yl)-5,5,5-trifluoropentanoyl)azetidine-3-carbonitrile] | < 0.1 | < 0.1 | < 0.1 | > 1 | > 1 | > 1 |  | 
CNC(=O)C[C@@H](c1ccc(-n2cc(-c3ccnc4[nH]cnc34)cn2)nc1)C(F)(F)F [Example 1214, (S)-3-(6-(4-(3H-imidazo[4,5-b]pyridin-7-yl)-1H-pyrazol-1-yl)pyridin-3-yl)-4,4,4-trifluoro-N-methylbutanamide] | < 0.1 | < 0.5 | < 0.1 | > 1 | > 1 | > 1 |  | 
OC(CN1CCOCC1)(c1ccc(-n2cc(-c3ccnc4[nH]cnc34)cn2)nc1)C(F)(F)F (centres unmarked) [Example 1229, 2-(6-(4-(3H-imidazo[4,5-b]pyridin-7-yl)-1H-pyrazol-1-yl)pyridin-3-yl)-1,1,1-trifluoro-3-morpholinopropan-2-ol] | < 0.1 | < 0.1 | < 0.1 | > 1 | > 1 | > 1 |  | 
O=C(NCC(F)(F)F)N1CCN(c2ccnc3[nH]c(=O)[nH]c23)CC1 [Example 1011, N-(2,2,2-trifluoroethyl)-4-(2,3-dihydro-2-oxo-1H-imidazo[4,5-b]pyridin-7-yl)piperazine-1-carboxamide] |  | > 1 | > 1 | > 1 | > 10 | > 10 | > 10 | 
CNCC[C@@H](c1ccc(-n2cc(-c3ccnc4[nH]cnc34)cn2)nc1)C(F)(F)F [Example 1217, (S)-3-(6-(4-(3H-imidazo[4,5-b]pyridin-7-yl)-1H-pyrazol-1-yl)pyridin-3-yl)-4,4,4-trifluoro-N-methylbutan-1-amine, TFA salt] | 0.0026 | 0.007 | 0.006 | 0.08 | > 0.1 | > 0.5 |  | 
N#CCCC(c1ccc(-n2cc(-c3ccnc4[nH]cnc34)cn2)nc1)C(F)(F)F (centres unmarked) [Example 1156, 4-(6-(4-(3H-imidazo[4,5-b]pyridin-7-yl)-1H-pyrazol-1-yl)pyridin-3-yl)-5,5,5-trifluoropentanenitrile] | > 0.1 | > 0.5 | > 0.5 | > 1 | > 0.5 | > 1 |  | 
CNC(=O)N1CC(C(O)(c2ccc(-n3cc(-c4ccnc5[nH]cnc45)cn3)nc2)C(F)(F)F)C1 (centres unmarked) [Example 1246, 3-(1-(6-(4-(3H-imidazo[4,5-b]pyridin-7-yl)-1H-pyrazol-1-yl)pyridin-3-yl)-2,2,2-trifluoro-1-hydroxyethyl)-N-methylazetidine-1-carboxamide] | 0.006 | 0.034 | 0.006 | 0.79 | 1.5 | 2 |  | 
CNS(=O)(=O)CCC(c1ccc(-n2cc(-c3ccnc4[nH]cnc34)cn2)nc1)C(F)(F)F (centres unmarked) [Example 1142, 3-(6-(4-(3H-imidazo[4,5-b]pyridin-7-yl)-1H-pyrazol-1-yl)pyridin-3-yl)-4,4,4-trifluoro-N-methylbutane-1-sulfonamide] | < 0.1 |  | < 0.1 | > 1 | > 0.5 | > 0.5 | > 1 | 
CNCCC(c1ccc(-n2cc(-c3ccnc4[nH]cnc34)cn2)nc1)C(F)(F)F (centres unmarked) [Example 1152, 3-(6-(4-(3H-imidazo[4,5-b]pyridin-7-yl)-1H-pyrazol-1-yl)pyridin-3-yl)-4,4,4-trifluoro-N-methylbutan-1-amine] | < 0.1 | < 0.1 | < 0.1 | > 0.5 | > 0.1 |  |  | > 0.1
O=C(Nc1ccncc1)N1CCN(c2ccnc3[nH]c(=O)[nH]c23)CC1 [Example 1014, 4-(2,3-dihydro-2-oxo-1H-imidazo[4,5-b]pyridin-7-yl)-N-(pyridin-4-yl)piperazine-1-carboxamide] |  |  | > 1 | > 1 | > 10 | > 10 | > 10 | 
